Experimental data as given in patent US7323541B2, “Polypeptide DNA thereof and use of the same” (Takeda Pharmaceutical Company Limited, priority 2001, dated 2008).
Numbering of substitutions follows the chain as printed. Where no end group is shown, it is not given here.

Key:
[1] = system: human colon cancer cell line LS 174T; assay: Growth of carcinomas of LS 174T in nude mice; assay type: in vivo, nude mice (BALB/cAnN-nu); conditions: osmotic pump 48 nmol/day for 14 days, 11th to 20th day, vs distilled water
Protocol: Effects on the growth of carcinomas by the human TGR23-2 ligand (1-20) in nude mice of human colon cancer cell line LS 174T were investigated.
The LS 174T dissolved in PBS (phosphate buffered saline) was subcutaneously administered at the ratio of 4×10^6 cells/200 μl/mouse to left abdominal of female nude mice (BALB/cAnN-nu, six weeks old). After three hours of administration, 100 μl of the human TGR23-2 ligand (1-20) dissolved in Otsuka distilled water at the concentration of 2 mM, or Otsuka distilled water was filled in the Micro-Osmotic Pump (alza, model 1002), and further embedded under the skin in the back of mouse under anesthesia (n=10 per each group). From this day, the human TGR23-2 ligand (1-20) was continuously released for 14 days at 48 nmol/day. From the third day of administration, dimensions of the carcinoma were measured, and carcinoma volume was calculated based on the formula: (major axis)×(minor axis)^2/2.

[2] = biological target: T1, human TGR23-1A expressing CHO cells (Homo sapiens, UniProt Q6W5P4, S241R); assay: Intracellular Ca ion concentration increasing activity using FLIPR; assay type: cell-based
T1 construct: expressed in transfected cells; host or cells: CHO dhfr- cells, pAKKO-TGR23-1A, clone No. 60
T1 sequence (Q6W5P4 1-371 S241R): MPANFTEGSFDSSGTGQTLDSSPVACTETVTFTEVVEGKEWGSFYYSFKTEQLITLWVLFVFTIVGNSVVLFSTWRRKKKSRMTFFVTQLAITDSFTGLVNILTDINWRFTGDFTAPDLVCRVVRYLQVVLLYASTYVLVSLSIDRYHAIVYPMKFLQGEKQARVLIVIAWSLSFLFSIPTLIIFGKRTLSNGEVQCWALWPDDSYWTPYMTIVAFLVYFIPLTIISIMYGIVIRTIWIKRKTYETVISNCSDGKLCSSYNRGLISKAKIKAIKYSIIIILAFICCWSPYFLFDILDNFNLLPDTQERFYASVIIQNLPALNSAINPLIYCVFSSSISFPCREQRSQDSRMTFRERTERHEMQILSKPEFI
Protocol: (§1) An enhancing activity of intracellular Ca^2+ release was assayed using FLIPR (Molecular Devices, Inc.). The CHO/TGR23-2 cells prepared in Example 1 and selected in Example 2 were plated on 96-well plate at 3×10^4 cells/well and cultured for 24 hours. A loading buffer was prepared by adding 1 vial of Fluo 3-AM to 10 ml of Hanks' solution (pH7.4) containing 2.5 mM Probenecid and 20 mM HEPES (hereafter, Hanks' solution (pH7.4) containing 2.5 mM Probenecid and 20 mM HEPES may be referred to as a washing buffer). The culture medium was discarded from the culture plate and 100 μl/well of the loading buffer were added to the cells. Then, the cells were incubated for 60 minutes in the incubator. After the loading buffer was removed from the culture plate and the cells were washed with the washing buffer, the plate was put in place of FLIPR. A sample was prepared by adding a sample buffer, which 2 mg/ml BSA and 1 mg/ml CHAPS were added to the washing buffer, to lyophilized product, stirring and treating by ultrasonication for 30 minutes, and transferred to 96-well sample plate. This sample plate was also put in place for assay. The enhancing activity of intracellular Ca^2+ release was measured as an increase of fluorescent intensity, which is raised by addition of the sample.
(§2) The human TGR23-2 ligand (1-20) having various concentrations was administered in accordance with the method described in Example 5, to the CHO cells, in which human TGR23-1A, human TGR23-1B, human TGR23-1C and human TGR23-1D are expressed. Subsequently, the intracellular Ca ion concentration increasing activity was measured using FLIPR.

[3] = biological target: T2, human TGR23-1B expressing CHO cells (Homo sapiens, UniProt Q6W5P4, N107I/S241R); assay: as above; assay type: cell-based
T2 construct: expressed in transfected cells; host or cells: CHO dhfr- cells, pAKKO-TGR23-1B, clone No. 59
T2 sequence (Q6W5P4 1-371 N107I/S241R): T1 sequence (Q6W5P4 1-371 S241R) with N107I
Protocol: as §1, §2

[4] = biological target: T3, human TGR23-1C expressing CHO cells (Homo sapiens, UniProt Q6W5P4, N107I); assay: as above; assay type: cell-based
T3 construct: expressed in transfected cells; host or cells: CHO dhfr- cells, pAKKO-TGR23-1C, clone No. 9
T3 sequence (Q6W5P4 1-371 N107I): T1 sequence (Q6W5P4 1-371 S241R) with N107I, R241S
Protocol: as §1, §2

[5] = biological target: T4, human TGR23-1D expressing CHO cells (Homo sapiens, UniProt Q6W5P4, Q344R); assay: as above; assay type: cell-based
T4 construct: expressed in transfected cells; host or cells: CHO dhfr- cells, pAKKO-TGR23-1D, clone No. 12
T4 sequence (Q6W5P4 1-371 Q344R): T1 sequence (Q6W5P4 1-371 S241R) with R241S, Q344R
Protocol: as §1, §2

Sequence: SFRNGVGTGMKKTSFQRAKS [human TGR23-2 ligand (1-20)]
- carcinoma volume of LS 174T [1]: has a tendency to increase
- intracellular Ca ion concentration increasing activity [2]: the intracellular Ca ion level increased depending on the concentration of this ligand
- intracellular Ca ion concentration increasing activity [3]: the intracellular Ca ion level increased depending on the concentration of this ligand
- intracellular Ca ion concentration increasing activity [4]: the intracellular Ca ion level increased depending on the concentration of this ligand
- intracellular Ca ion concentration increasing activity [5]: the intracellular Ca ion level increased depending on the concentration of this ligand
